Measured values: patent US8309718B2, “4-pyrazolyl-N-arylpyrimidin-2-amines and 4-pyrazolyl-N-heteroarylpyrimidin-2-amines as janus kinase inhibitors” (Incyte Corporation, priority 2007, dated 2012)
pIC50: −log10 of the molar value.

Each molecule was assayed against T1, human JAK2 (Homo sapiens, UniProt O60674) (assay: In vitro JAK kinase assay (HTRF, phosphorylation of biotinylated peptide)). Conditions: catalytic domain a.a. 828-1132, 30 μM ATP, 500 nM peptide, room temperature 1 hr; read-out: JAK-2 IC50.
T1 construct: JAK2 (a.a. 828-1132); His tag (N); made in house; host or cells: insect cells (baculovirus)
T1 sequence (O60674 828-1132): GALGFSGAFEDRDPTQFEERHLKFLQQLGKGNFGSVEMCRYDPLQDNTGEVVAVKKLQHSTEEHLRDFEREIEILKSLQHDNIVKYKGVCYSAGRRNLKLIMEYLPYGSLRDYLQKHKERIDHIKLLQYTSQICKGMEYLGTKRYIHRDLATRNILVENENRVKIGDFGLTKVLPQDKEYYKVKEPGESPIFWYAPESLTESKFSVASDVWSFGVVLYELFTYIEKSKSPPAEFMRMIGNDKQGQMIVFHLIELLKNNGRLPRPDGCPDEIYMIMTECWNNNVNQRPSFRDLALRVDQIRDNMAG
Format: biochemical
Procedure, shortened: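 IC50 from HTRF detection (Eu-Py20 antibody, SA-APC) of biotinylated-peptide phosphorylation (500 nM), run 1 h at RT. Enzyme: N-His human JAK2 kinase domain a.a. 828-1132 from insect cells; ATP 30 μM; buffer 50 mM Tris pH 7.8 with NaCl, DTT, BSA.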
`N#CCC(C1CCCC1)n1cc(-c2ccnc(Nc3cccc(C(=O)NCCc4cccnc4)c3)n2)cn1` (racemic) [Example 161, 3-(4-(1-(2-cyano-1-cyclopentylethyl)-1H-pyrazol-4-yl)pyrimidin-2-ylamino)-N-(2-(pyridin-3-yl)ethyl)benzamide] gave a pIC50 greater than 7.00. For `COc1ccccc1CNC(=O)c1cccc(Nc2nccc(-c3cnn(C(CC#N)C4CCCC4)c3)n2)c1` (racemic) [Example 163, 3-(4-(1-(2-cyano-1-cyclopentylethyl)-1H-pyrazol-4-yl)pyrimidin-2-ylamino)-N-(2-methoxybenzyl)benzamide], the pIC50 was greater than 7.00. `N#CCC(C1CCCC1)n1cc(-c2ccnc(Nc3cccc(C(=O)N4CCC(Oc5ccccc5)CC4)c3)n2)cn1` (racemic) [Example 164, 3-cyclopentyl-3-(4-(2-(3-(4-phenoxypiperidine-1-carbonyl)phenylamino)pyrimidin-4-yl)-1H-pyrazol-1-yl)propanenitrile] was tested, and the pIC50 was greater than 7.00. Work on `N#CCC(C1CCCC1)n1cc(-c2ccnc(Nc3cccc(C(=O)NC4(CO)CCCC4)c3)n2)cn1` (racemic) [Example 165, 3-(4-(1-(2-cyano-1-cyclopentylethyl)-1H-pyrazol-4-yl)pyrimidin-2-ylamino)-N-(1-(hydroxymethyl)cyclopentyl)benzamide] yielded a pIC50 greater than 7.00. With `N#CCC(C1CCCC1)n1cc(-c2ccnc(Nc3cccc(C(=O)N4CCN(c5ccc(C#N)cc5)CC4)c3)n2)cn1` (racemic) [Example 166, 4-(4-(3-(4-(1-(2-cyano-1-cyclopentylethyl)-1H-pyrazol-4-yl)pyrimidin-2-ylamino)benzoyl)piperazin-1-yl)benzonitrile] the pIC50 was greater than 7.00. In the case of `N#CCC(C1CCCC1)n1cc(-c2ccnc(Nc3cccc(C(=O)N4CCN(c5ccccc5)CC4)c3)n2)cn1` (racemic) [Example 168, 3-cyclopentyl-3-(4-(2-(3-(4-phenylpiperazine-1-carbonyl)phenylamino)pyrimidin-4-yl)-1H-pyrazol-1-yl)propanenitrile], the pIC50 was greater than 7.00. For `N#CCC(C1CCC1)n1cc(-c2ccnc(Nc3ccc(N4CCOCC4)cc3)n2)cn1` (racemic) [Example 171, 3-cyclobutyl-3-(4-(2-(4-morpholinophenylamino)pyrimidin-4-yl)-1H-pyrazol-1-yl)propanenitrile], the pIC50 was greater than 7.00. `N#CCC(C1CCC1)n1cc(-c2ccnc(Nc3ccc(-n4cccn4)cc3)n2)cn1` (racemic) [Example 173, 3-(4-(2-(4-(1H-pyrazol-1-yl)phenylamino)pyrimidin-4-yl)-1H-pyrazol-1-yl)-3-cyclobutylpropanenitrile] was tested, and the pIC50 was greater than 7.00. With `N#CCC(C1CCC1)n1cc(-c2ccnc(Nc3ccc(N4CCCCC4=O)cc3)n2)cn1` (racemic) [Example 174, 3-cyclobutyl-3-(4-(2-(4-(2-oxopiperidin-1-yl)phenylamino)pyrimidin-4-yl)-1H-pyrazol-1-yl)propanenitrile] the pIC50 was greater than 7.00. Molecule `N#CCC(C1CCC1)n1cc(-c2ccnc(Nc3ccc(N4CCOCC4=O)cc3)n2)cn1` (racemic) [Example 175, 3-cyclobutyl-3-(4-(2-(4-(3-oxomorpholino)phenylamino)pyrimidin-4-yl)-1H-pyrazol-1-yl)propanenitrile] has a pIC50 greater than 7.00. Work on `N#CCC(C1CCC1)n1cc(-c2ccnc(Nc3cccc(-c4cnco4)c3)n2)cn1` (racemic) [Example 176, 3-cyclobutyl-3-(4-(2-(3-(oxazol-5-yl)phenylamino)pyrimidin-4-yl)-1H-pyrazol-1-yl)propanenitrile] yielded a pIC50 greater than 7.00. Work on `N#CCC(C1CC1)n1cc(-c2ccnc(Nc3ccc(N4CCOCC4)cc3)n2)cn1` (racemic) [Example 177, 3-cyclopropyl-3-(4-(2-(4-morpholinophenylamino)pyrimidin-4-yl)-1H-pyrazol-1-yl)propanenitrile] yielded a pIC50 greater than 7.00. For `N#CCC(C1CC1)n1cc(-c2ccnc(Nc3ccc(-n4cccn4)cc3)n2)cn1` (racemic) [Example 178, 3-(4-(2-(4-(1H-pyrazol-1-yl)phenylamino)pyrimidin-4-yl)-1H-pyrazol-1-yl)-3-cyclopropylpropanenitrile], the pIC50 was greater than 7.00. Work on `N#CCC(C1CC1)n1cc(-c2ccnc(Nc3ccc(N4CCCCC4=O)cc3)n2)cn1` (racemic) [Example 179, 3-cyclopropyl-3-(4-(2-(4-(2-oxopiperidin-1-yl)phenylamino)pyrimidin-4-yl)-1H-pyrazol-1-yl)propanenitrile] yielded a pIC50 greater than 7.00. Work on `N#CCC(C1CC1)n1cc(-c2ccnc(Nc3ccc(N4CCOCC4=O)cc3)n2)cn1` (racemic) [Example 180, 3-cyclopropyl-3-(4-(2-(4-(3-oxomorpholino)phenylamino)pyrimidin-4-yl)-1H-pyrazol-1-yl)propanenitrile] yielded a pIC50 greater than 7.00. With `N#CCC(C1CC1)n1cc(-c2ccnc(Nc3cccc(-c4cnco4)c3)n2)cn1` (racemic) [Example 181, 3-cyclopropyl-3-(4-(2-(3-(oxazol-5-yl)phenylamino)pyrimidin-4-yl)-1H-pyrazol-1-yl)propanenitrile] the pIC50 was greater than 7.00. Molecule `C[C@@H]1CN(S(=O)(=O)Nc2ccc(Nc3nccc(-c4cnn(C(CC#N)C5CCCC5)c4)n3)cc2)C[C@H](C)O1` (mixture of isomers) [Example 182, N-(4-(4-(1-(2-cyano-1-cyclopentylethyl)-1H-pyrazol-4-yl)pyrimidin-2-ylamino)phenyl)-(cis)-2,6-dimethylmorpholine-4-sulfonamide] has a pIC50 greater than 7.00. With `N#CCC(C1CCCC1)n1cc(-c2ccnc(Nc3ccc(NC(=O)c4ccccc4)cc3)n2)cn1` (racemic) [Example 183, N-(4-(4-(1-(2-cyano-1-cyclopentylethyl)-1H-pyrazol-4-yl)pyrimidin-2-ylamino)phenyl)benzamide] the pIC50 was greater than 7.00. With `CS(=O)(=O)CS(=O)(=O)Nc1ccc(Nc2nccc(-c3cnn(C(CC#N)C4CCCC4)c3)n2)cc1` (racemic) [Example 184, N-(4-(4-(1-(2-cyano-1-cyclopentylethyl)-1H-pyrazol-4-yl)pyrimidin-2-ylamino)phenyl)-1-(methylsulfonyl)methanesulfonamide] the pIC50 was greater than 7.00. With `N#CCC(C1CCCC1)n1cc(-c2ccnc(Nc3ccc(NC(=O)c4cc(F)cc(F)c4)cc3)n2)cn1` (racemic) [Example 185, N-(4-(4-(1-(2-cyano-1-cyclopentylethyl)-1H-pyrazol-4-yl)pyrimidin-2-ylamino)phenyl)-3,5-difluorobenzamide] the pIC50 was greater than 7.00. `CN(C)S(=O)(=O)Nc1ccc(Nc2nccc(-c3cnn(C(CC#N)C4CCCC4)c3)n2)cc1` (racemic) [Example 186, NA-(4-(4-(1-(2-cyano-1-cyclopentylethyl)-1H-pyrazol-4-yl)pyrimidin-2-ylamino)phenyl)-N,N-dimethylsulfamide] was tested, and the pIC50 was greater than 7.00. For `Cc1cc(C(=O)Nc2ccc(Nc3nccc(-c4cnn(C(CC#N)C5CCCC5)c4)n3)cc2)no1` (racemic) [Example 187, N-(4-(4-(1-(2-cyano-1-cyclopentylethyl)-1H-pyrazol-4-yl)pyrimidin-2-ylamino)phenyl)-5-methylisoxazole-3-carboxamide], the pIC50 was greater than 7.00. With `N#CCC(C1CCCC1)n1cc(-c2ccnc(Nc3ccc(NC(=O)c4ccno4)cc3)n2)cn1` (racemic) [Example 188, N-(4-(4-(1-(2-cyano-1-cyclopentylethyl)-1H-pyrazol-4-yl)pyrimidin-2-ylamino)phenyl)isoxazole-5-carboxamide] the pIC50 was greater than 7.00.
